According to patent US20050158271A1, “Pharmaceutical applications of hydrotropic polymer micelles” (priority 2000, published 2005):
≈ marks a conversion by molar mass, not a printed value.

Legend:
[1] = Aqueous solubility of paclitaxel (intrinsic, clinical vehicle, hydrotropic agents)
Source text: The molecular structures of these hydrotropic agents are shown below.

SKOV-3 = test: Antitumor cytotoxicity (ED50), SKOV-3; type: cell-based; conditions: SKOV-3 tumor cell line
Experimental: (§1) The antitumor cytotoxicities, as measured by ED50, of polymeric micelles on various cell lines were measured as shown in Table 7. […] Free paclitaxel and doxorubicin in ethanol were used as positive controls. The ED50 values of hydrotropic micelles are much lower than PLA-PEG and PPA-PEG micelles.

HT-29 = test: Antitumor cytotoxicity (ED50), HT-29; type: cell-based; conditions: HT-29 tumor cell line
Experimental: as §1

MCF-7 = test: Antitumor cytotoxicity (ED50), MCF-7; type: cell-based; conditions: MCF-7 tumor cell line
Experimental: as §1

MDA231 = test: Antitumor cytotoxicity (ED50), MDA231; type: cell-based; conditions: MDA231 tumor cell line
Experimental: as §1

[2] = 50:50 mixture of Cremophore EL and dehydrated ethanol, diluted in isotonic saline; cited from earlier work

increase in aqueous solubility over the intrinsic solubility [1] | hydrotropic property for paclitaxel (ability to increase aqueous paclitaxel solubility) ([1]; hydrotrope screening, in words) | SMILES | ED50 SKOV-3 (SKOV-3) | ED50 HT-29 (HT-29) | ED50 MCF-7 (MCF-7) | ED50 MDA231 (MDA231) | paclitaxel solubility in formulation [2]
5˜6 orders of magnitude | – | CC(=O)O[C@H]1C(=O)[C@@]2(C)[C@H]([C@H](OC(=O)c3ccccc3)[C@]3(O)C[C@H](OC(=O)[C@H](O)[C@@H](NC(=O)c4ccccc4)c4ccccc4)C(C)=C1C3(C)C)[C@]1(OC(C)=O)CO[C@@H]1C[C@@H]2O [Paclitaxel, paclitaxel] | 0.006 µg/mL (≈ 0.00703 µM) | 0.003 µg/mL (≈ 0.00351 µM) | 0.043 µg/mL (≈ 0.0504 µM) | 0.033 µg/mL (≈ 0.0386 µM) | ≤ 1200 µg/mL
– | – | COc1cccc2c1C(=O)c1c(O)c3c(c(O)c1C2=O)C[C@@](O)(C(=O)CO)C[C@@H]3O[C@H]1C[C@H](N)[C@H](O)[C@H](C)O1 [Doxorubicin] | 0.611 µg/mL (≈ 1.12 µM) | 0.044 µg/mL (≈ 0.081 µM) | 0.773 µg/mL (≈ 1.42 µM) | 0.050 µg/mL (≈ 0.092 µM) | –
– | excellent hydrotropes for paclitaxel | O=C([O-])c1ccccc1O.[Na+] [sodium salicylate, Sodium salicylate] | – | – | – | – | –
